Experimental data from patent publication US9592225B2, “Crystalline N-[5-(aminosulfonyl)-4-methyl-1,3-thiazol-2-yl]-N-methyl-2-[4-(2-pyridinyl)phenyl]acetamide mono mesylate monohydrate having a specific particle size distribution range and a specific surface area range for use in pharmaceutical formulations” (AICURIS ANTI-INFECTIVE CURES GMBH, priority 2011, dated 2017).

Columns and labels:
HSV = experiment: Murine HSV skin infection model; assay type: in vivo; settings: oral doses of 5 mg/kg or higher once daily for four days; data not shown
Method: To assess the pharmacokinetic/pharmacodynamic profile the effective dose of the free base of N-[5-(aminosulfonyl)-4-methyl-1,3-thiazol-2-yl]-N-methyl-2-[4-(2-pyridinyl)phenyl]-acetamide was validated in a murine HSV skin infection model and associated plasma concentrations were determined (data not shown).
(§1) In healthy male volunteers these plasma concentrations were covered by a single dose of 40 mg as free base equivalent to the crystalline mono mesylate monohydrate salt of N-[5-(aminosulfonyl)-4-methyl-1,3-thiazol-2-yl]-N-methyl-2-[4-(2-pyridinyl)phenyl]acetamide (see FIG. 10) and at steady state by daily doses of 25 mg as free base equivalent (see FIG. 11) for 21 days.

[1] = Safety and tolerability in phase I trials; assay type: in vivo, human; settings: healthy male volunteers, single and multiple dose, up to the highest dose tested
Method: The results were compared with the effective concentration of the free base of N-[5-(aminosulfonyl)-4-methyl-1,3-thiazol-2-yl]-N-methyl-2-[4-(2-pyridinyl)phenyl]acetamide in cell culture and correlated to exposures reached in healthy male volunteers in single and multiple dose phase I trials (see FIGS. 9-13).
as §1

[2] = Single-dose escalation and pharmacokinetics in human volunteers; assay type: in vivo
Text: Exposure of the free base form of N-[5-(aminosulfonyl)-4-methyl-1,3-thiazol-2-yl]-N-methyl-2-[4-(2-pyridinyl)-phenyl]acetamide to the human body may be measured by high pressure liquid chromatography (HPLC) by looking at different pharmacokinetic parameters in suitable bodily fluids such as for instance blood plasma and urine, the most common parameters being the Cmax, the so-called area under the curve (AUC), and the terminal half-life (t1/2Z). Hereto, the person skilled in the art understands that said parameters are determined by using adequate bioanalytical methods with adequate sensitivity, specificity, ruggedness, stability and repeatability, as for instance a qualified liquid chromatography triple quad mass spectrometry based method coupled with a suitable extraction method for the separation of the analyte from, e.g. the blood plasma.
Therefore, pharmacokinetic studies in human subjects were undertaken following both single and multiple dose administrations of the crystalline mono mesylate monohydrate salt of N-[5-(aminosulfonyl)-4-methyl-1,3-thiazol-2-yl]-N-methyl-2-[4-(2-pyridinyl)phenyl]-acetamide, wherein the particle size distribution is preferably defined by d(0.1) from 2 to 100 μm, d(0.5) from 30 to 210 μm and d(0.9) from 70 to 400 μm with a specific surface area of the particles less than 1.0 m^2/g, and more preferably defined by d(0.1) from 10 to 75 μm, d(0.5) from 100 to 175 μm, d(0.9) from 200 to 350 μm with a specific surface area of the particles less than 0.3 m^2/g.
Single oral doses of the crystalline mono mesylate monohydrate salt of N-[5-(aminosulfonyl)4methyl1,3thiazol-2-yl]-N-methyl-2-[4-(2-pyridinyl)phenyl]acetamide using the formulations according to example 2, Table 2, were administered to six volunteers per dose step. The overall shape of the plasma concentrations vs. time profiles were similar across all doses (see FIG. 9 and FIG. 12). […]
AUC0-∞: Area under the analyte vs. time concentration from time of administration up to infinity, calculated as
[formula] wherein A0-last is defined as the area under the analyte vs. time concentration up to time of the last qualifiable concentration, calculated by linear up/log down summation and Clast is defined as last quantifiable observed analyte concentration. λz is the apparent terminal elimination rate constant, determined by linear regression of terminal points of In-linear analyte concentration-time curve.
Cmax is the maximal observed analyte concentration and tmax is the time to reach Cmax; t1/2z is defined as the apparent terminal elimination half-life, calculated as
MRT: Mean Residence Time; calculated AUMC divided by AUC, wherein AUMC is the area under the first moment of the concentration-time curve from zero up to ∞ with extrapolation of the terminal phase and AUC is the area under the concentration-time curve from zero up to ∞ with extrapolation of the terminal phase. […]

[3] = Multiple-dose escalation and steady-state pharmacokinetics in healthy volunteers; assay type: in vivo, human; settings: for AUGτ: day 21 steady state, n=12
Text: For the three doses of the mono mesylate monohydrate salt of N-[5-(aminosulfonyl)-4-methyl-1,3-thiazol-2-yl]-N-methyl-2-[4-(2-pyridinyl)phenyl]acetamide in formulation according to example 1, Table 2, wherein the particle size distribution is preferably defined by d(0.1) from 2 to 100 μm, d(0.5) from 30 to 210 μm and d(0.9) from 70 to 400 μm with a specific surface area of the particles less than 1.0 m^2/g, and more preferably defined by d(0.1) from 10 to 75 μm, d(0.5) from 100 to 175 μm, d(0.9) from 200 to 350 μm with a specific surface area of the particles less than 0.3 m^2/g, investigated (5, 25, and 100 mg as free base equivalent; once per day oral administration, […]), the individual concentration-time curves of the free base N-[5-(aminosulfonyl)-4-methyl-1,3-thiazol-2-yl]Nmethyl-2-[4-(2-pyridinyl)phenyl]acetamide at day 1 (after the first administration) were very similar in their general shape and slope to those profiles obtained in the single dose escalation trial (see Example 6).
At steady state, there was a low inter-individual variability of minimal or “trough” concentrations with CVs (coefficient of variations) between 16.7 and 21.7% (day 21). For all doses, the individual and mean concentration-time curves of the free base of N-[5-(aminosulfonyl)-4-methyl-1,3-thiazol-2-yl]-N-methyl-2-[4-(2-pyridinyl)phenyl]acet-amide at day 21 were very similar in their shape and slope to those profiles obtained at day 1.
Table 10: Steady state pharmacokinetic parameters of the free base N-[5-(aminosulfonyl)-4-methyl-1,3-thiazol-2-yl]-N-methyl-2-[4-(2-pyridinyl)phenyl]acetamide at day 21 after daily administrations of 5, 25, or 100 mg as free base equivalent of the mono mesylate monohydrate salt of N-[5-(aminosulfonyl)-4-methyl-1,3-thiazol-2-yl]-N-methyl-2-[4-(2-pyridinyl)phenyl]acetamide in formulation according to example 2, Table 2, wherein the particle size distribution is preferably defined by d(0.1) from 2 to 100 μm, d(0.5) from 30 to 210 μm and d(0.9) from 70 to 400 μm with a specific surface area of the particles less than 1.0 m^2/g, and more preferably defined by d(0.1) from 10 to 75 μm, d(0.5) from 100 to 175 μm, d(0.9) from 200 to 350 μm with a specific surface area of the particles less than 0.3 m^2/g, to healthy volunteers (n=12 per dose).

Thermostability = assay type: physicochemical; settings: compared to the mesylate salt
Text: A clear advantage of the N-[5-(aminosulfonyl)-4-methyl-1,3-thiazol-2-yl]-N-methyl-2-[4-(2-pyridinyl)phenyl]acetamide mono mesylate monohydrate, wherein the PSD, PSR and SSA are as defined herein, is its proven long-term stability. Therefore, the inventive N-[5-(aminosulfonyl)-4-methyl-1,3-thiazol-2-yl]-N-methyl-2-[4-(2-pyridinyl)-phenyl]acetamide mono mesylate monohydrate, which is characterized by the PSD, PSR and SSA as disclosed herein, is better suited for the preparation of long-term stable tablets compared to the free base form of N-[5-(aminosulfonyl)-4-methyl-1,3-thiazol-2-yl]-N-methyl-2-[4-(2-pyridinyl)phenyl]acetamide.

SMILES | suppression of murine HSV skin infection (HSV) | safety and tolerability [1] | gender-related difference in exposure ([2]; single dose of 80 mg as free base equivalent, after normalization to body weight) | relation of maximum plasma concentrations to dose ([2]; single doses from 5 mg to 400 mg as free base equivalent) | relation of AUC0-∞ to dose ([2]; single doses from 5 mg to 480 mg as free base equivalent) | mean maximum blood plasma concentration (mean Cmax) of the free base ([2]; single oral dose 480 mg as free base equivalent) [µg/mL] | AUC0-∞ ([2]; single oral dose 600 mg free base equivalent, mean, n=6) [µg·h/mL] | AUGτ ([3]; human, 5 mg free base equivalent once daily oral) [µg·h/mL] | AUGτ ([3]; human, 25 mg free base equivalent once daily oral) [µg·h/mL] | AUGτ ([3]; human, 100 mg free base equivalent once daily oral) [µg·h/mL] | relation of steady-state exposure (Ctrough, AUCτ, Cmax,ss, Cav) to dose ([3]; human, 5, 25, 100 mg once daily) | relation of AUC0-24 h and Cmax at day 1 to dose ([3]; human, 5, 25, 100 mg, after the first administration) | accumulation ratio R for both AUC and Cmax ([3]; human, all doses applied (5, 25, 100 mg once daily)) | thermostability (Thermostability)
Cc1nc(N(C)C(=O)Cc2ccc(-c3ccccn3)cc2)sc1S(N)(=O)=O [free base, N-[5-(aminosulfonyl)-4-methyl-1,3-thiazol-2-yl]-N-methyl-2-[4-(2-pyridinyl)phenyl]acetamide] | completely suppressed the murine infection | safe and well tolerated | – | – | – | – | – | – | – | – | – | – | – | –
CS(=O)(=O)O.Cc1nc(N(C)C(=O)Cc2ccc(-c3ccccn3)cc2)sc1S(N)(=O)=O [mono mesylate monohydrate, N-[5-(aminosulfonyl)-4-methyl-1,3-thiazol-2-yl]-N-methyl-2-[4-(2-pyridinyl)-phenyl]acetamide mono methanesulfonic acid monohydrate] | – | – | No clinical relevant gender-related difference | linearly related to doses | dose-proportional increase | 6.921 ± 2.19 | 320.8 | 5.094 | 23.43 | 108.8 | dose-proportional increase | dose-proportional increases | ~5 | up to 170 °C
